# Legend:
# HBV WT = assay: HepG2.2.15 cell-based HBV assay, wild type; conditions: Hepatitis B virus
# Method: Selected compounds were evaluated in in vitro cell-based HepG2.2.15 HBV assay.
# Antiviral analysis. For the antiviral analyses, confluent cultures of 2.2.1.5 cells were maintained on 96-well flat-bottomed tissue culture plates in RPMI1640 medium with 2% fetal bovine serum. Cultures (6 per each test concentration on two replicate plates) were treated with 9 consecutive daily doses of the test compounds. Medium was changed daily with fresh test compounds. HBV nucleic acid and protein levels were measured 24 hours after the last treatment. Extracellular (virion) HBV DNA levels were assessed by quantitative blot hybridization. Intracellular HBV DNA levels were measured by quantitative Southern blot hybridization.
# The uptake of neutral red dye was used to determine the relative level of toxicity 24 hours following the last treatment. The absorbance of internalized dye at […] (A510) was used for the semi-quantitative analysis. Values are presented as a percentage of the average A510 values (±standard deviations) in 9 separate cultures of untreated cells maintained on the 96-well plates seeded at the same time with the identical pool of stock cells used for the antiviral analyses and maintained in an identical manner. A total of 3 cultures were treated with each concentration of the test compound.
# HBV-3TC-R4 LMMV = format: cell-based; conditions: Hepatitis B virus
# [1] = Cytotoxicity by neutral red dye uptake in HCV replicon cultures; format: cell-based; conditions: human, AVA5 HCV replicon cell line (sub-genomic CON1, genotype 1b); parallel plates, 3-day assay; read-out: CC50, neutral red dye uptake
# Method: Antiviral activity against HCV was assessed in a 3-day assay (Okuse, et al., 2005; Antiviral. Res. 65:23; Korba, et al., 2008, Antiviral Res. 77:56) using the stably-expressing HCV replicon cell line, AVA5 (sub-genomic (CON1), genotype 1b) (Blight, et al., 2000; Science 290:1972) maintained as sub-confluent cultures on 96-well plates. Antiviral activity was determined by blot hybridization analysis of intracellular HCV RNA (normalized to the level of cellular B-actin RNA in each culture sample). Cytotoxicity was assessed by neutral red dye uptake in cultures maintained in parallel plates.
# EC50, EC90, and CC50 values were calculated by linear regression analysis (MS EXCEL®, QuattroPro®) using data combined from all treated cultures Korba & Gerin, 1992, Antivir. Res. 19:55; Okuse, et al., 2005, Antivir. Res. 65:23). […]
# Combination treatments are conducted as previously described. Briefly, two agents were mixed together at a pre-determined concentration ratio. […] Analysis of drug interactions in the combination studies was determined by the use of the CALCUSYN program (Biosoft, Inc., Cambridge, United Kingdom). […]
# HCV = assay: Combination studies against HCV in replicon assays; format: cell-based; conditions: Hepatitis C virus, read-out: EC50 (uM), single drug
# EEEH protein = assay: EEEH expression in woodchucks after sublingual administration; format: in vivo; conditions: following absorption by the sublingual route
# Method: Compound 5 was administered by sublingual route to woodchucks, at a dose of […] in Transcutol, and blood was drawn periodically for analysis. Test results are provided in Tables 4 and 5 and FIG. 3 and FIG. 4.
# hepatitis B virus (HBV) = assay: Effect of i.p. administration on hepatitis B virus in transgenic mice; format: in vivo
# Method: Compound 5 was evaluated in transgenic mice expressing hepatitis B virus (HBV). […] Its activity was also similar to the adefovir dipivoxil (ADV) anti-HBV activity; however, the two compounds seemed to suppress different HBV DNA species. […] In contrast, Compound 5 appeared to indiscriminately remose all HBV DNA species, including the bands typically left by ADV, which may reflect a different mechanism of action other than classical chain termination. Serum HBe, liver HBs, and HBc were not affected by Compound 5 treatment, which is consistent in transgenic mice with compounds that block viral synthesis “downstream” from mRNA synthesis, such as blockage of polymerase activities. A minimal effective dosage was determined to be between 1.6-0.5 mg/kg/day, which was similar to ADV minimal effective dosage of 1.0 mg/kg/day (Table 8).
# PBMCs = format: cell-based
# macrophages = format: cell-based
# [2] = 100 mg/kg/d i.p. once daily 14 days, group listed with C:E:S vehicle
# [3] = 100 mg/kg/d i.p. once daily 14 days, group listed with saline placebo
Compound,EC50 (HBV WT) [µM],EC90 (HBV WT) [µM],EC50 (HBV-3TC-R4 LMMV) [µM],EC90 (HBV-3TC-R4 LMMV) [µM],CC50 at 3 day [1] [µM],EC50 (HCV) [µM],kinetics of induction of the EEEH protein (EEEH protein),Liver HBV DNA (mean pg viral/μg cellular DNA ± stdev) (hepatitis B virus (HBV); [2]),Liver HBV RNA (mean relative units ± stdev) (hepatitis B virus (HBV); [2]) [relative units],Liver HBeAg (mean stained cells/100 × field ± stdev) (hepatitis B virus (HBV); [2]) [stained cells/100 × field],Serum HBV DNA (mean log10 genome equivalents/mL serum ± stdev) (hepatitis B virus (HBV); [2]),Serum HBeAg (mean ng/mL ± stdev) (hepatitis B virus (HBV); [2]) [ng/mL],Serum HBsAg (mean ng/mL ± stdev) (hepatitis B virus (HBV); [2]) [ng/mL],Liver HBV DNA (mean pg viral/μg cellular DNA ± stdev) (hepatitis B virus (HBV); [3]),Serum HBV DNA (mean log10 genome equivalents/mL serum ± stdev) (hepatitis B virus (HBV); [3]),"effect on liver HBV DNA (hepatitis B virus (HBV); i.p. once daily 14 days, 100 mg/kg/day, saline or cremaphor:ethanol:saline vehicles)","effect on serum HBe, liver HBs, and HBc (hepatitis B virus (HBV); i.p. treatment)",induction of IFN (PBMCs),induction of IL-2 (macrophages)
CO[C@H]1C(OP(=O)(OC[C@H]2O[C@@H](n3cnc4c(N)ncnc43)CC2O)SCOC(=O)OC(C)C)[C@@H](CO)O[C@H]1n1ccc(=O)[nH]c1=O (stereo partly shown) [Compound 6k],2.5,8.5,3.1,9.3,> 100,1.5 to 2.3,–,–,–,–,–,–,–,–,–,–,–,–,–
"CO[C@H]1C(OP(=O)(S)OC[C@H]2O[C@@H](n3cnc4c(N)ncnc43)CC2O)[C@@H](CO)O[C@H]1n1ccc(=O)[nH]c1=O (stereo partly shown) [Compound 5, 3-dApsU2′-OMe]",–,–,–,–,–,–,very rapid,1.7 ± 1.5 (9) pg viral/μg cellular DNA,1.7 ± 0.3,24 ± 15,5.4 ± 0.6 (7) log10 genome equivalents/mL serum,1241 ± 279,28 ± 15,0.3 ± 0.4 (8) pg viral/μg cellular DNA,5.0 ± 0.3 (8) log10 genome equivalents/mL serum,significantly reduced liver HBV DNA,not affected,induction of IFN beta,showed induction of IL-2

# — patent US20150329864A1, “DESIGN OF OLIGONUCLEOTIDE ANALOGS AS THERAPEUTIC AGENTS” (SPRING BANK PHARMACEUTICALS, INC., priority 2010, published 2015)
